# No end group written: not given here.
# Key:
# male Wistar rats [1] = conditions: rat, in vivo
# Method: In this study, a dose of INDO 7 mg/kg was used based on the results of an INDO-induced small intestinal inflammation model validation study conducted by Zealand Pharma.
# male Wistar rats [2] = assay: INDO-induced small intestinal inflammation model validation study (INDO dose finding); conditions: data not shown
# naive Wistar rats = assay: Intestinotrophic effect in naive rats; format: in vivo, rat; conditions: 80 and 400 nmol/kg SC once daily for 7 days, vs vehicle, 400 vs 80 nmol/kg p < 0.05
# Method: Glepaglutide (80 nmol/kg or 400 nmol/kg, SC, once daily) or vehicle (SC, once daily) were administered for 14 days to naive Wistar rats to assess the intestinotrophic properties of the peptide, before initiating studies in the small intestinal inflammation model (Fig. 1A). Overall, 18 rats were included per arm, with 6 rats each sacrificed on day 0, day 7, and day 14.
# Animals were anesthetized with carbon dioxide and then sacrificed by cervical dislocation. The small intestine (from the pylorus to the ileocecal junction) was dissected away from the abdomen and the surrounding mesenteric fat. Small intestinal length was measured after weighing the small intestine with a 1 g weight to obtain uniform tension. Thereafter, the small intestine was divided into two segments of equal length labeled as the jejunum and ileum. Segments were gently flushed with 0.9% saline, padded dry, and weighed. A 5 cm biopsy was collected 10 cm distal from the start of the jejunal segment, and another 5 cm biopsy was collected 10 cm distal from the start of the ileal segment. […]
# Data are presented as mean ± standard error of the mean, unless otherwise stated. The intestinal growth-promoting effect of glepaglutide in naive rats was determined using a two-way analysis of variance (ANOVA, dose and time), and significant findings were further analyzed with the Bonferroni post hoc test. […]
# [3] = system: Wistar rats with INDO-induced small intestinal inflammation; assay: INDO-induced small intestinal inflammation model, co- and post-treatment; format: in vivo, rat; conditions: 400 nmol/kg SC twice daily
# Method: Two treatment regimens were studied: glepaglutide (400 nmol/kg, SC, twice daily) was administered in a co-treatment regimen (Fig. 1B – administered at inflammation onset and throughout), and a post-treatment regimen (Fig. 1C – administered after inflammation onset and throughout).
# Two groups of controls, INDO controls (administered with INDO and treated with vehicle) and controls (administered with saline solution and treated with vehicle), were included in the studies (Fig. 1B and C). Groups of rats (n = 7–15) were sacrificed during the active inflammation phase (2–3 days after inflammation onset), on day 3 for the co-treatment regimen (Fig. 1B) and on day 4 for the post-treatment regimen (Fig. 1C), to determine small intestinal length, jejunal and ileal mass, and α-1-acid glycoprotein (α-1-AGP) and myeloperoxidase (MPO) concentrations in the jejunum and ileum. Equivalent groups of rats were sacrificed during the body weight recovery phase (14–15 days after inflammation onset), on day 14 for the co-treatment regimen (Fig. 1B), and on day 16 for the post-treatment regimen (Fig. 1C), to determine jejunal and ileal mass. Body weight and survival were recorded daily.
# Animals were anesthetized with carbon dioxide and then sacrificed by cervical dislocation. The small intestine (from the pylorus to the ileocecal junction) was dissected away from the abdomen and the surrounding mesenteric fat. Small intestinal length was measured after weighing the small intestine with a 1 g weight to obtain uniform tension. Thereafter, the small intestine was divided into two segments of equal length labeled as the jejunum and ileum. Segments were gently flushed with 0.9% saline, padded dry, and weighed. A 5 cm biopsy was collected 10 cm distal from the start of the jejunal segment, and another 5 cm biopsy was collected 10 cm distal from the start of the ileal segment. The biopsies were immediately frozen in liquid nitrogen and stored at -80 °C for later analysis of concentrations of α-1-AGP and MPO using commercially available enzyme-linked immunosorbent assay kits (Life Diagnostics [2510–2] and Hycult Biotech [HK 210], respectively). The preparation method was validated in house.
# Data are presented as mean ± standard error of the mean, unless otherwise stated. The intestinal growth-promoting effect of glepaglutide in naive rats was determined using a two-way analysis of variance (ANOVA, dose and time), and significant findings were further analyzed with the Bonferroni post hoc test. In the INDO model, a t-test was used to compare INDO control-treated rats with vehicle control-treated rats, and INDO control-treated rats with glepaglutide-treated rats. A p value of ≤ 0.05 was considered statistically significant. Grubbs’ test was used to test for outliers in the section, and outliers were not included in the analyses. Differences in survival between different groups were compared by the Cox–Mantel log-rank test.
# hGLP-2R = molecular target: T1, hGLP-2R (Homo sapiens, UniProt O95838, D470N); assay: cAMP accumulation assay in HEK293 cells stably expressing hGLP-2R (AlphaScreen)
# T1 sequence (O95838 1-553 D470N): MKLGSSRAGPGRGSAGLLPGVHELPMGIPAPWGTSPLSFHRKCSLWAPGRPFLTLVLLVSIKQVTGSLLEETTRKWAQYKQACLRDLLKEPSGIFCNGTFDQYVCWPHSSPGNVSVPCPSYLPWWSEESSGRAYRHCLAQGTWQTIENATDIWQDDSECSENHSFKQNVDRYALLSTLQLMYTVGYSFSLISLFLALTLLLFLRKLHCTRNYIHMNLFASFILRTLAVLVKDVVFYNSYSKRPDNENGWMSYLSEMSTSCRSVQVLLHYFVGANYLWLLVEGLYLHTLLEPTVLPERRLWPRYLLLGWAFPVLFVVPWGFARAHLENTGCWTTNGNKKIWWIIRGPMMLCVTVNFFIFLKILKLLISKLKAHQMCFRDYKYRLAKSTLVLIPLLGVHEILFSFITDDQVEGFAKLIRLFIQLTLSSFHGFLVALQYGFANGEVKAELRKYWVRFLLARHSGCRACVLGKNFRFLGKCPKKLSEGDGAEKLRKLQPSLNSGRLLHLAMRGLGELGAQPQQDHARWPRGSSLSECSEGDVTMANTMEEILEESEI
# Method: For assaying, HEK293 cells stably expressing hGLP-2R were seeded at 30,000 cells per well in 96-well microtiter plates coated with 0.01% poly-L-lysine. […] The reaction was stopped by decanting off the compound/buffer and replacing it with 80 µl lysis/detection buffer consisting of deionized water supplemented with 0.1% w/v BSA (Sigma-Aldrich A9430), 5 mM HEPES, and 0.3% v/v Tween-20 (Sigma-Aldrich P7949).
# Compound potency (EC50) and maximal effect (Emax) values were estimated by computer-aided curve fitting using a three-parameter logistic non-linear model.
# [4] = system: patients with moderate to severe CD; conditions: 8 weeks of treatment, failed to reach statistical significance; cited from earlier work
# Description: Use of GLP-2 agonists for the treatment of IBD is not a novel concept. The ability of teduglutide to induce remission or to reduce the Crohn’s disease activity index (CDAI) score by at least 100 points after 8 weeks of treatment was examined in patients with moderate to severe CD [37]. […] We speculate that the study was underpowered and that the assessment of mucosal healing, rather than the CDAI, would have been a better endpoint to assess the effect of ...
# [5] = co-treatment, body weight recovery phase (day 14), vs INDO controls
# [6] = post-treatment, active inflammation phase (day 4), ELISA, vs INDO controls, p < 0.01
# [7] = post-treatment, body weight recovery phase (day 16), vs INDO controls
molecule,measurement,setting,value
"COc1ccc2c(c1)c(CC(=O)O)c(C)n2C(=O)c1ccc(Cl)cc1 [INDO, indomethacin]","Induction of inflammation, INDO 3 mg/kg",male Wistar rats [1],insufficient for inducing inflammation
same,"Induction of macroscopic features of inflammation, INDO 7 mg/kg",male Wistar rats [1],sufficient and appropriate
same,"Mortality, INDO 15 mg/kg",male Wistar rats [2],exaggerated mortality
HGEGTFSSELATILDALAARDFIAWLIATKITDKKKKKK-NH2 (C-terminus assumed) [Glepaglutide],"Small intestinal mass, day 7",naive Wistar rats,dose-dependently increased
same,"Ileal MPO concentration, co-treatment","[3]; co-treatment, active inflammation phase (day 3), ELISA, vs INDO controls, p < 0.001",significantly decreased
same,"Ileal α-1-AGP concentration, co-treatment","[3]; co-treatment, active inflammation phase (day 3), ELISA, vs INDO controls, p < 0.05",significantly decreased
same,"Small intestinal shortening (small intestinal length), co-treatment","[3]; co-treatment, active inflammation phase (day 3), vs INDO controls, p < 0.001",reversed
same,"Ileal mass, co-treatment, active inflammation phase","[3]; co-treatment, active inflammation phase, vs INDO controls, p < 0.05",significantly increased
same,"Ileal mass, co-treatment, body weight recovery phase",[3]; [5],significantly increased
same,"Jejunal mass, co-treatment, body weight recovery phase",[3]; [5],significantly increased
same,"Acute body weight loss, co-treatment","[3]; co-treatment, vs INDO controls, p < 0.001, data not shown",significantly decreased
same,"Ileal α-1-AGP concentration, post-treatment",[3]; [6],significantly decreased
same,"Jejunal α-1-AGP concentration, post-treatment",[3]; [6],significantly decreased
same,"Jejunal MPO concentration, post-treatment","[3]; post-treatment, active inflammation phase (day 4), ELISA, vs INDO controls, p < 0.05",significantly decreased
same,"Small intestinal shortening (small intestinal length), post-treatment","[3]; post-treatment, active inflammation phase (day 4), vs INDO controls, p = 0.05",significantly reversed
same,"Ileal mass, post-treatment, body weight recovery phase",[3]; [7],significantly increased
same,"Jejunal mass, post-treatment, body weight recovery phase",[3]; [7],significantly increased
same,"Acute body weight loss, post-treatment","[3]; post-treatment, data not shown",no effect
same,"Emax ± SEM, agonism of hGLP-2R (cAMP accumulation)","hGLP-2R; response normalized to a saturating concentration of hGLP-2 and baseline cAMP of unstimulated receptor, mean ± SEM, n = 5",102 ± 3.7
HGEGTFSSELATILDALAARDFIAWLIATKITDKKKKKK-NH2 [Glepaglutide],Survival,"[3]; co- and post-treatment regimens, Cox–Mantel log-rank test",no effect
same,EC50,hGLP-2R; SEM,0.0933 nM
[Gly^2]GLP-2 [teduglutide],Effect on CDAI score,[4],"positive, dose-dependent effect"
